This is an account of results in the OPERA property sets (Mansouri et al. 2018).

In brackets after ≈: the same amount, converted by molar mass.

Conditions in one data set: not given
In turn, `CCCCCCl` came in with a logP of 2.73.

The same data set, now with this note: 25 °C.
With `CCCCCC(=O)OCC`, the solubility is 4.36 mM (≈ 629 µg/mL).
As to `CCCCCCCCCC(=O)OCC`, the solubility was 0.0793 mM (≈ 15.9 µg/mL).
For `CC(C)CC(C)(C)O`, the solubility is 113 mM (≈ 13200 µg/mL). This solubility is about 1400-fold higher than that of the molecule before.
Still for that read-out and setting: under `CCCCC(=O)OCC` stands 17 mM (≈ 2210 µg/mL); under `CCCCCCCC(=O)OCC`, 0.407 mM (≈ 70.1 µg/mL); under `CCC(=O)OC(C)C`, 51.2 mM (≈ 5950 µg/mL).
`CCCC(Cl)Cl` displayed a solubility of 3.96 mM (≈ 504 µg/mL).
As to `C=CC(O)CC` (stereo unspecified), the solubility came to 1050 mM (≈ 90000 µg/mL). This solubility is about 270-fold higher than that of the molecule before.
Still for that read-out and setting: the same measure for `CCOC(=O)CCCCCCC(=O)OCC`: 2.95 mM (≈ 679 µg/mL); for `CCCCCCC(=O)OCC`: 1.83 mM (≈ 290 µg/mL); for `CCC(=O)C(C)C`: 155 mM (≈ 15500 µg/mL).
As to `Clc1ccccc1I`, the solubility came out at 0.291 mM (≈ 69.4 µg/mL).
For `Brc1ccc(Br)c(Br)c1`, the solubility worked out at 0.0222 mM (≈ 7 µg/mL).
`CCCCCCC=O` returned a solubility of 10.9 mM (≈ 1250 µg/mL).
The molecule `CCOC(=O)CCCCCC(=O)OCC` had a solubility of 9.4 mM (≈ 2030 µg/mL).
`Clc1cccc(I)c1` registered a solubility of 0.288 mM (≈ 68.6 µg/mL).
Same read-out and setting: under `FC(F)(F)CCl` stands 77.7 mM (≈ 9200 µg/mL).
In turn, `COc1ccc(NC(C)=O)cc1` registered a solubility of 91.1 mM (≈ 15100 µg/mL).
As to `CCOC(=O)CCCCCCCC(=O)OCC`, the solubility is 1.02 mM (≈ 250 µg/mL).
In the case of `CC(C)COC=O`, the solubility was 99.9 mM (≈ 10200 µg/mL).
`CCCCOC` showed a solubility of 102 mM (≈ 9010 µg/mL). The solubility values of the last two molecules are within 1.5-fold of each other.
Same read-out and setting: the same measure for `CCC(C)C(O)C(C)CC` (stereo unspecified): 3.08 mM (≈ 445 µg/mL); for `CCCCCCCCCC(C)O` (stereo unspecified): 1.15 mM (≈ 197 µg/mL); for `CCCOC(=O)CC`: 45.6 mM (≈ 5300 µg/mL).
Still for that read-out and setting: under `CC(C)C(C)(C)O` stands 407 mM (≈ 41500 µg/mL).
In the case of `C#CCCCCCCC`, the solubility was 0.068 mM (≈ 8.45 µg/mL).
`Ic1cccc(I)c1`: the solubility was 0.0286 mM (≈ 9.43 µg/mL).
The molecule `Clc1ccccc1Br` registered a solubility of 0.383 mM (≈ 73.4 µg/mL). This solubility is about 13-fold higher than that of the molecule before.
On the same count and under the same terms, the same measure for `CCCOCC`: 173 mM (≈ 15200 µg/mL).
For `CCCCOC(=O)c1ccc(N)cc1`, the solubility was found to be 1.75 mM (≈ 337 µg/mL). This solubility lies about 99-fold lower than the previous one.
With `C=COC=C`, the solubility turned out to be 77.6 mM (≈ 5440 µg/mL).
`CC(C)CC(C)CO` (stereo unspecified) returned a solubility of 25.1 mM (≈ 2910 µg/mL). This solubility is about 3.1-fold lower than that of the molecule before.
For `CCOC(C)C`, the solubility came to 278 mM (≈ 24500 µg/mL).
In the case of `CCCCCC[C@@H](O)CC`, the solubility is 2.18 mM (≈ 315 µg/mL).
`CC(C)CCOC=O`: the solubility is 29.3 mM (≈ 3400 µg/mL). Against the preceding molecule, the solubility is about 13-fold higher.
`CCCCCCCCC(=O)OCC` yielded a solubility of 0.158 mM (≈ 29.5 µg/mL). This solubility lies about 190-fold lower than the previous one.
`C/C=C\C` had a solubility of 10.3 mM (≈ 580 µg/mL).
In the case of `CCC(C)(O)C(C)(C)C` (stereo unspecified), the solubility was 53.6 mM (≈ 6980 µg/mL).
Still for that read-out and setting: the same measure for `CCC(C)C(C)(C)O` (stereo unspecified): 135 mM (≈ 15700 µg/mL).

The data set is the same for the next values; noted with them: 27 °C.
Consider `Ic1ccccc1I`, for which the solubility came to 0.0591 mM (≈ 19.5 µg/mL).

The logP is the decadic logarithm of the partition coefficient of the neutral form, usually between octanol and water. Low readings indicate lower lipophilicity, high ones higher lipophilicity. A word on the solubility: it is how much of the substance goes into solution per volume. Lower therefore signals little dissolved substance.
